The results in this text go back to patent US20080269267A1, “KINASE INHIBITORS USEFUL FOR THE TREATMENT OF MYLEOPROLIFIC DISEASES AND OTHER PROLIFERATIVE DISEASES” (Deciphera Pharmaceuticals, LLC, priority 2007, published 2008).

In general, IC50 refers to the concentration at which inhibition is half-maximal.

In assay [1] the target is T1, T315I Abl kinase (SEQ ID NO:2) (Homo sapiens, UniProt P00519, T315I).
T1 construct: purchased deCode Genetics
T1 sequence (P00519 with tags, fused parts or gaps T315I): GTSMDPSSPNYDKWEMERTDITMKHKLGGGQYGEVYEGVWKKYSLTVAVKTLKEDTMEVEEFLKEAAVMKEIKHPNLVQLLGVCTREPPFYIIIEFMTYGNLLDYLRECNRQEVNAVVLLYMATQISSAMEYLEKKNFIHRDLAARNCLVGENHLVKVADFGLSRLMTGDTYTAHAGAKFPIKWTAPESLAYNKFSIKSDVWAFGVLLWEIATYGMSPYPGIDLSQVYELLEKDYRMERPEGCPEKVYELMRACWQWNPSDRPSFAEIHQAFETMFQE
Nature of the assay: T315I Abl kinase assay (pyruvate kinase/lactate dehydrogenase coupled). Conditions: 1 h preincubation at 30° C., ATP 500 μM; read-out: Abl T315l Enzyme Assay, biochemical IC50. Here is the method: Abl Kinase (SEQ ID NO:2) Assay
Activity of T315I Abl kinase (SEQ ID NO:2) was determined by following the production of ADP from the kinase reaction through coupling with the pyruvate kinase/lactate dehydrogenase system (e.g., Schindler, et al. Science (2000) 289, 1938-1942). In this assay, the oxidation of NADH (thus the decrease at A340nm) was continuously monitored spectrophometrically. The reaction mixture (100 μl) contained Abl kinase (4.4 nM. […] Abl from deCode Genetics), peptide substrate (EAIYAAPFAKKK, 0.2 mM), MgCl2 (10 mM), pyruvate kinase (4 units), lactate dehydrogenase (0.7 units), phosphoenol pyruvate (1 mM), and NADH (0.28 mM) in 90 mM Tris buffer containing 0.2% octyl-glucoside and 1% DMSO, pH 7.5. Test compounds were incubated with T315I Abl (SEQ ID NO:2) and other reaction reagents at 30° C. for 1 h before ATP (500 μM) was added to start the reaction. The absorption at 340 nm was monitored continuously for 2 hours at 30° C. on Polarstar Optima plate reader (BMG). The reaction rate was calculated using the 1.0 to 2.0 h time frame. Percent inhibition was obtained by comparison of reaction rate with that of a control (i.e. with no test compound). IC50 values were calculated from a series of percent inhibition values determined at a range of inhibitor concentrations using software routines as implemented in the GraphPad Prism software package.

The target of assay [2] is B-Raf(V600E) kinase (SEQ ID NO:11) (Homo sapiens, UniProt P15056, V600E). Nature of the assay: B-Raf(V600E) kinase assay (pyruvate kinase/lactate dehydrogenase coupled, MEK1 substrate). Conditions: 1 h preincubation at 30° C., ATP 0.2 mM; read-out: B-Raf V600E Enzyme Assay, biochemical IC50. Here is the method:
B-Raf(V600E) Kinase Assay
The activity of B-Raf(V600E) kinase (SEQ ID NO:11) was determined by following the formation of ADP from the reaction through coupling with the pyruvate kinase/lactate dehydrogenase system (e.g., Schindler, et al. Science (2000) 289, 1938-1942). In this assay, the oxidation of NADH (thus the decrease at A340nm) was continuously monitored spectrophotometrically. The reaction mixture (100 μl) contained B-Raf(V600E) kinase (0.34 nM nominal concentration, SEQ ID NO:11), unphosphorylated, full-length MEK1 (42 nM, SEQ ID NO:12), MgCl2 (13 mM), pyruvate kinase (3.5 units), lactate dehydrogenase (5.5 units), phosphoenolpyruvate (1 mM), and NADH (0.28 mM), in 60 mM Tris buffer, containing 0.13% octyl-glucoside and 3.5% DMSO concentration at pH 7.5. The test compounds were incubated with the reaction mixture at 30° C. for 1 h. The reaction was initiated by adding ATP (0.2 mM, final concentration). The absorption at 340 nm was continuously monitored for 3 h at 30° C. on a Polarstar Optima plate reader (BMG). The reaction rate was calculated using the 0.5 h to 1.5 h time frame. Percent inhibition was obtained by comparison of reaction rate with that of a control (i.e. with no test compound). IC50 values were calculated from a series of percent inhibition values determined at a range of inhibitor concentrations using software routines as implemented in the GraphPad Prism software package.

The target in assay [3] is T2, BaF3 cells transfected with wild type p210 BCR-Abl (Homo sapiens, UniProt P00519).
T2 construct: fused on or other part: P11274 (Breakpoint cluster region protein)
As to the kind of experiment: Ba/F3 p210 whole cell proliferation assay (Cell Titer Blue, 72 hours). The format is cell-based. Conditions: 72 hours incubation; read-out: Ba/F3 p210 whole cell proliferation assay, antiproliferation IC50. Here is the method: (§1) BaF3 cells (parental or transfected with the following: wild type p210 BCR-Abl and T315I p210 BCR-Abl was obtained from Professor Richard Van Etten (New England Medical Center, Boston, Mass.). Briefly, cells were grown in RPMI 1640 supplemented with 10% characterized fetal bovine serum (HyClone, Logan, Utah) at 37 degrees Celsius, 5% CO2, 95% humidity. Cells were allowed to expand until reaching 80% saturation at which point they were subcultured or harvested for assay use.
(§2) A serial dilution of test compound was dispensed into a 96 well black clear bottom plate (Corning, Corning, N.Y.). For each cell line, three thousand cells were added per well in complete growth medium. Plates were incubated for 72 hours at 37 degrees Celsius, 5% CO2, 95% humidity. At the end of the incubation period Cell Titer Blue (Promega, Madison, Wis.) was added to each well and an additional 4.5 hour incubation at 37 degrees Celsius, 5% CO2, 95% humidity was performed. Plates were then read on a BMG Fluostar Optima (BMG, Durham, N.C.) using an excitation of 544 nm and an emission of 612 nm. Data was analyzed using Prism software (Graphpad, San Diego, Calif.) to calculate IC50's.
(In general: The colour change of resazurin is a common sign of viable cells or microbes.)

The target in assay [4] is T3, BaF3 cells transfected with T315I p210 BCR-Abl (Homo sapiens, UniProt P00519, T315I, cells depend on it).
T3 construct: fused on or other part: P11274 (Breakpoint cluster region protein)
Nature of the assay: Ba/F3 p210 T315I whole cell proliferation assay (Cell Titer Blue, 72 hours). The format is cell-based. Conditions: 72 hours incubation; read-out: Ba/F3 p210 T315I whole cell proliferation assay, antiproliferation IC50. Here is the method:
as §1, §2

SMILES strings stand for the structures. Structures can show the parent of a compound that is named as a salt.

Sequence of B-Raf(V600E) kinase (SEQ ID NO:11) (P15056 with tags, fused parts or gaps V600E): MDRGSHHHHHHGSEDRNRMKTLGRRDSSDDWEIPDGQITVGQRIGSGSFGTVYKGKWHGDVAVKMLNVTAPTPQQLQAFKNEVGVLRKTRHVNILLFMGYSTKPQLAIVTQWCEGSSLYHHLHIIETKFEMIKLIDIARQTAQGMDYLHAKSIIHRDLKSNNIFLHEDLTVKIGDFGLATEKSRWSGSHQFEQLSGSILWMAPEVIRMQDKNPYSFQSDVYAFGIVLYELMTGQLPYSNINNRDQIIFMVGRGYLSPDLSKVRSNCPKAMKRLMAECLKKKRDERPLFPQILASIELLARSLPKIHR

On to `CC(C)c1cc(NC(=O)Nc2ccc(Oc3ccnc(-c4cnn(C)c4)c3)c(F)c2)n(-c2cccc(C#N)c2)n1` [Example 16, 1-(1-(3-cyanophenyl)-3-isopropyl-1H-pyrazol-5-yl)-3-(3-fluoro-4-(2-(1-methyl-1H-pyrazol-4-yl)pyridin-4-yloxy)phenyl)urea], for which the concentration for half-maximal inhibition (IC50) in assay [1] and in assay [2] was less than 100 nM each time. For the same molecule, the GI50 in assay [3] and in assay [4] was less than 100 nM throughout.
With `Cn1cc(-c2cc(Oc3ccc(NC(=O)Nc4cc(C(C)(C)C)nn4-c4cccc(CO)c4)c(F)c3)ccn2)cn1` [Example 7, 1-(3-tert-butyl-1-(3-(hydroxymethyl)phenyl)-1H-pyrazol-5-yl)-3-(2-fluoro-4-(2-(1-methyl-1H-pyrazol-4-yl)pyridin-4-yloxy)phenyl)urea p-toluenesulfonic acid], the IC50 in assay [1] and in assay [2] was less than 100 nM throughout. Also, the GI50 in assay [3] and in assay [4] was less than 100 nM each time.
On to `Cn1cc(-c2cc(Oc3ccc(NC(=O)Nc4cc(-c5ccccc5F)nn4C)c(F)c3F)ccn2)cn1` [Example 25, 1-(2,3-difluoro-4-(2-(1-methyl-1H-pyrazol-4-yl)pyridin-4-yloxy)phenyl)-3-(3-(2-fluorophenyl)-1-methyl-1H-pyrazol-5-yl)urea], for which the concentration for half-maximal inhibition (IC50) in assay [1] is less than 100 nM; in assay [2], less than 1000 nM. Besides, the results for the GI50 in assay [3] and in assay [4] were less than 1000 nM and less than 10000 nM, respectively.
On to `CC(C)(C)c1cc(NC(=O)Nc2ccc(Oc3ccnc(-c4cn[nH]c4)c3)cc2F)n(-c2cccc(C#N)c2)n1` [Example 3, 1-(4-(2-(1H-pyrazol-4-yl)pyridin-4-yloxy)-2-fluorophenyl)-3-(3-tert-butyl-1-(3-cyanophenyl-1H-pyrazol-5-yl)urea hydrochloride], for which the half-maximal inhibitory concentration (IC50) in assay [1] and in assay [2] was less than 100 nM in each case. The GI50 in assay [3] and in assay [4] was less than 100 nM each time.
As to `Cn1cc(-c2cc(Oc3ccc(NC(=O)Nc4cc(C(C)(C)C)nn4-c4ccc(C#N)cc4)c(F)c3)ccn2)cn1` [Example 6, 1-(3-tert-butyl-1-(4-cyanophenyl)-1H-pyrazol-5-yl)-3-(2-fluoro-4-(2-(1-methyl-1H-pyrazol-4-yl)pyridin-4-yloxy)phenyl)urea], the half-maximal inhibitory concentration (IC50) in assay [1] and in assay [2] was less than 100 nM in each case. The GI50 in assay [3] and in assay [4] was less than 100 nM in each case.
Turning to `Cc1ncc(NC(=O)Nc2ccc(Oc3ccnc(-c4cnn(C)c4)c3)cc2F)c(-c2ccccc2)n1` [Example 14, 1-(2-fluoro-4-(2-(1-methyl-1H-pyrazol-4-yl)pyridin-4-yloxy)phenyl)-3-(2-methyl-4-phenylpyrimidin-5-yl)urea], the concentration for half-maximal inhibition (IC50) in assay [1] and in assay [2] was less than 100000 nM throughout. The GI50 in assay [3] and in assay [4] was less than 100 nM each time.
